Test results from article PMC8224038, “Anti-Leukemic Properties of Aplysinopsin Derivative EE-84 Alone and Combined to BH3 Mimetic A-1210477” (Marine Drugs, 2021).
Read-outs that look alike come from different tables or passages of the source.

How the values were obtained:
K562 cells [1] = assay: Cell cycle analysis (PI, FACS); format: cell-based, human; conditions: Celecoxib 40 μM
Experimental: Cells were collected and fixed in 70% ethanol. DNA was stained with propidium iodide (PI) solution (1 μg/mL, Sigma-Aldrich, St. Louis, MO, USA) in 1XPBS (Biosesang, Seongnam, Korea) for 30 min at 37 °C, supplemented with RNase A (100 μg/mL, Roche, Basel, Switzerland). Samples were analyzed by flow cytometry using the FACSCalibur^TM system, Becton Dickinson (BD) Biosciences (San Jose, CA, USA). Data were recorded statistically (10,000 events/sample) using the Cell Quest software (BD Biosciences) and analyzed using Flow-Jo 8.8.5 software (Tree Star, Inc., Ashland, OR, USA).

K562 cells [2] = assay: Annexin V APC/PI staining quantified by FACS; format: cell-based, human
From the text: (§2) The percentage of apoptotic cells was quantified as the fraction of cells showing fragmented nuclei, as assessed by fluorescence microscopy (Nikon, Tokyo, Japan) after staining with Hoechst 33342 (Sigma-Aldrich) and propidium iodide (Sigma-Aldrich). In addition, apoptosis was confirmed by Annexin V APC (Biolegend, 640919)/propidium iodide (BD Biosciences, 556547) staining and fluorescence-activated cell sorter (FACS) analysis according to the manufacturer protocol (BD Biosciences, 556547).

K562IR cells = assay: Trypan blue exclusion test, viability; format: cell-based; conditions: Homo sapiens, A-1210477 20 µM, 24 h
Experimental: (§1) Cell proliferation and viability were assessed by the trypan blue exclusion method (Lonza), and viable cells were counted using a hematocytometer (Marienfeld, Lauda-Königshofen, Germany). Differential toxicity was calculated by comparing the viability of RPMI 1788 cells to the viability of cancer cells (normal/cancer cells). The difference in viability was expressed in terms of fold change.

K562 cells [3] = assay: Hoechst/PI staining by fluorescent microscopy; format: cell-based, human; conditions: K562, 24 h, A-1210477 10 µM alone (Figure 7D)
From the text: as §2

K562 cells [4] = assay: Trypan blue exclusion test, viability; format: cell-based, human; conditions: for viability of K562 cells: concentrations up to 50 µM, 24, 48, 72 h
Experimental: as §1

K562 cells [5] = assay: Trypan blue exclusion test, proliferation (GI50); format: cell-based, human; conditions: concentrations up to 50 µM; 24, 48, 72 h
Experimental: as §1

zebrafish embryos = assay: Zebrafish toxicity; conditions: 24 h exposure
Experimental: For toxicity assays, embryos were treated with 0.003% phenylthiourea (PTU) 14 h before the assay to remove pigmentation. Then, 2 h before the assay, the embryo’s shell was eliminated and then treated for up to 24 h with aplysinopsin compounds at indicated concentrations in 24-well plates. Viability and abnormal development were assessed after 24 h of treatment under light microscopy (Carl Zeiss Stereomicroscope DV4, Seoul, Korea). Pictures were taken by fixing embryos onto a glass slide with 3% methylcellulose (Sigma-Aldrich).

RPMI 1788 [6] = assay: Trypan blue exclusion test, viability (IC50) in noncancerous cells; format: cell-based, human; conditions: for IC50: read-out: IC50 (50% cell death)
Experimental: as §1

RPMI 1788 [7] = assay: Trypan blue exclusion test, proliferation (GI50) in noncancerous cells; format: cell-based, human
Experimental: as §1

[8] = K562, 24 h, A-1210477 10 μM, with z-VAD-fmk (50 μM)
[9] = K562, 24 h, Ima 1 μM, with z-VAD-fmk (50 μM)

Compound: Cc1ccc(-c2cc(C(F)(F)F)nn2-c2ccc(S(N)(=O)=O)cc2)cc1 [Celecoxib, reference compound]
- G1 cell cycle phase (K562 cells [1]; K562, 48 h): 64.77 ± 3.09%
- G2/M cell cycle phase (K562 cells [1]; K562, 48 h): 17.44 ± 2.13%
- S cell cycle phase (K562 cells [1]; K562, 48 h): 15.00 ± 0.93%
- Sub-G1 cell cycle phase (K562 cells [1]; K562, 48 h): 2.79 ±1.90%
- G1 cell cycle phase (K562 cells [1]; K562, 72 h): 68.43 ± 4.67%
- G2/M cell cycle phase (K562 cells [1]; K562, 72 h): 16.96 ± 3.04%
- S cell cycle phase (K562 cells [1]; K562, 72 h): 11.20 ± 2.37%
- Sub-G1 cell cycle phase (K562 cells [1]; K562, 72 h): 3.41 ± 2.04%

Compound: Cc1nn(C)c(COc2ccc(N3CCN(S(=O)(=O)N(C)C)CC3)cc2)c1-c1cccc2c(CCCOc3cccc4ccccc34)c(C(=O)O)n(CCN3CCOCC3)c12 [Compound A-1210477, reference compound]
- AnnV+/PI+ (%) (K562 cells [2]; K562, 24 h, A-1210477 10 μM): 4.73 ± 0.17%
- AnnV+/PI− (%) (K562 cells [2]; K562, 24 h, A-1210477 10 μM): 9.31 ± 1.78%
- Combined cell death (%) (K562 cells [2]; K562, 24 h, A-1210477 10 μM): 14.04 ± 3.24%
- AnnV+/PI+ (%) (K562 cells [2]; [8]): 2.81 ± 0.21%
- AnnV+/PI− (%) (K562 cells [2]; [8]): 6.04 ± 0.99%
- Combined cell death (%) (K562 cells [2]; [8]): 8.85 ± 2.28%
- viability at 20 µM (K562IR cells): 73 ± 3.6%
- apoptotic cell death (K562 cells [3]): about 14.5%
- viability at 10 µM (K562 cells [4]; Homo sapiens, K562, A-1210477 10 µM, 24 h): 79.3 ± 1.5%

Compound: N#CCC(=O)NNC(=O)C(=O)c1cn(Cc2ccccc2)c2ccccc12 [EE-31, 2-(1-Benzyl-1H-Indol-3-yl)-N′-(2-Cyanoacetyl)-2-Oxoacetohydrazide]
- melting point: 264 to 266 °C
- overall growth of K562 cells (K562 cells [5]): only weakly affected
- viability of K562 cells (K562 cells [4]): only weakly affected

Compound: COc1ccc2c(c1)c(C(=O)C(=O)NNC(=O)CC#N)cn2Cc1ccccc1 [EE-80, 2-(1-Benzyl-5-Methoxy-1H-Indol-3-yl)-N′-(2-Cyanoacetyl)-2-Oxoacetohydrazide]
- melting point: 199 to 201 °C
- overall growth of K562 cells (K562 cells [5]): only weakly affected
- viability of K562 cells (K562 cells [4]): only weakly affected

Compound: COc1ccc2c(c1)c(C(=O)C(=O)NNC(=O)CC#N)cn2Cc1ccc(Cl)cc1Cl [EE-92, N′-(2-Cyanoacetyl)-2-(1-(2,4-Dichlorobenzyl)-5-Methoxy-1H-Indol-3-yl)-2-Oxoacetohydrazide]
- melting point: 242 to 244 °C
- overall growth of K562 cells (K562 cells [5]): only weakly affected
- viability of K562 cells (K562 cells [4]): only weakly affected

Compound: Cc1ccc(NC(=O)c2ccc(CN3CCN(C)CC3)cc2)cc1Nc1nccc(-c2cccnc2)n1 [Ima, Imatinib, reference compound]
- AnnV+/PI+ (%) (K562 cells [2]; K562, 24 h, Ima 1 μM): 6.97 ± 0.88%
- AnnV+/PI− (%) (K562 cells [2]; K562, 24 h, Ima 1 μM): 37.77 ± 4.07%
- Combined cell death (%) (K562 cells [2]; K562, 24 h, Ima 1 μM): 44.74 ± 21.78%
- AnnV+/PI+ (%) (K562 cells [2]; [9]): 2.93 ± 0.15%
- AnnV+/PI− (%) (K562 cells [2]; [9]): 10.86 ± 3.57%
- Combined cell death (%) (K562 cells [2]; [9]): 13.79 ± 5.60%
- AnnV+/PI+ (%) (K562 cells [2]; K562, Ima 1 μM (Figure 3B)): 31.27 ± 5.24%
- AnnV+/PI− (%) (K562 cells [2]; K562, Ima 1 μM (Figure 3B)): 51.77 ± 2.29%
- Combined cell death (%) (K562 cells [2]; K562, Ima 1 μM (Figure 3B)): 83.03 ± 14.50%

Compound: (Z)-5-((1H-Indol-3-yl)Methylene)-1,3-Dimethylimidazolidine-2,4-Dione [EE-115]
- overall growth of K562 cells (K562 cells [5]): only weakly affected
- growth (relative body length) of zebrafish (zebrafish embryos; concentrations up to 100 µM): did not affect
- survival rate of zebrafish (zebrafish embryos; concentrations up to 100 µM): did not affect
- morphological changes of zebrafish (zebrafish embryos; embryos 24 hpf, different concentrations): No significant morphological changes
- IC50 (RPMI 1788 [6]; RPMI 1788, 24 h): > 50 µM
- IC50 (RPMI 1788 [6]; RPMI 1788, 48 h): > 50 µM
- IC50 (RPMI 1788 [6]; RPMI 1788, 72 h): > 50 µM
- viability of RPMI 1788 cells (RPMI 1788 [6]; up to 50 µM, Figure S4B): reduced the viability
- GI50 (RPMI 1788 [7]; RPMI 1788, 24 h): > 50 µM
- GI50 (RPMI 1788 [7]; RPMI 1788, 48 h): 30.4 ± 1.95 µM
- GI50 (RPMI 1788 [7]; RPMI 1788, 72 h): 27.7 ± 2.3 µM
- viability of K562 cells (K562 cells [4]): only weakly affected
